As a reminder, the IC50 is the midpoint of a concentration-inhibition curve. A higher IC50 goes with weaker potency.

From ChEMBL document CHEMBL2203271, “Pharmaceutical composition comprising indole compound for treatment of diseases associated with oxidative stress: patent highlight” (ACS Med Chem Lett, 2012) come the findings set out here.

For the assay, the system named is H9c2. In words: Cytoprotective activity against tBOOH-induced oxidative stress in rat H9c2 cells after 2 hrs by SRB assay. The class given is functional, cell-based. The conditions noted are these: H9c2, 2 h. Background: In SRB staining, fixed cells bind dye roughly in proportion to their protein.

Regarding `c1ccc(-c2nc3cccc(NC4CCCC4)c3[nH]2)cc1`, the IC50 amounted to 600 nM. In turn, `c1ccc(-c2nc3cccc(NC4CCOC4)c3[nH]2)cc1` (configuration not stated) gave an IC50 of 2000 nM.
